In US8192962B2, “Processes for detecting toxic substances” (Daikin Industries, Ltd., priority 2001, dated 2012):

System: Genes belonging to other category
Experiment: DNA chip mRNA expression in yeast, genes belonging to other category (Table 9)
Format: cell-based, Saccharomyces cerevisiae S288C
Procedure, shortened: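 In this screen, yeast in logarithmic growth are challenged for two hours with a toxic substance at a non-lethal inhibitory concentration. Their mRNA, converted to Cy3- or Cy5-labeled cDNA, hybridizes at 65° C. to a chip spanning every yeast gene, and expression is expressed as a ratio to untreated cells.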

Measured: The level of expressed mRNA in the presence of chemical substance/The level of expressed mRNA in the absence of chemical substance

[Cl][Pb][Cl] [(4), PbCl2]
1.2: yeast gene YDR104C | yeast gene YFL043C | yeast gene YLR356W | yeast gene YPL109C | yeast gene YPL154C
0.7: yeast gene YDR481C | yeast gene YGR136W | yeast gene YJL073W | yeast gene YMR219W | yeast gene YMR276W | yeast gene YPR103W
0.8: yeast gene YAR010C | yeast gene YCR071C | yeast gene YER130C | yeast gene YGL229C | yeast gene YHR142W | yeast gene YJL089W | yeast gene YKL008C | yeast gene YKL039W | yeast gene YLR391W | yeast gene YNL007C | yeast gene YOR117W | yeast gene YOR124C | yeast gene YOR355W
9.3: yeast gene YHR139C
1.6: yeast gene YHR071W | yeast gene YKL096W | yeast gene YLR120C | yeast gene YMR226C | yeast gene YOR036W
2.6: yeast gene YBL078C | yeast gene YMR104C
12.9: yeast gene YGL158W
2.2: yeast gene YEL066W
1.8: yeast gene YPL089C
1.1: yeast gene YCL020W | yeast gene YDL008W | yeast gene YDR084C | yeast gene YDR358W | yeast gene YGR257C | yeast gene YHR004C | yeast gene YKL013C | yeast gene YOR185C | yeast gene YOR288C
0.6: yeast gene YER107C | yeast gene YFL022C | yeast gene YJR004C | yeast gene YKL165C | yeast gene YMR275C | yeast gene YPR108W
1.9: yeast gene YJL116C
1.3: yeast gene YBL043W | yeast gene YDR315C | yeast gene YDR510W | yeast gene YMR004W | yeast gene YMR314W | yeast gene YOR157C
4.1: yeast gene YER039C
2.8: yeast gene YDR055W | yeast gene YNR010W | yeast gene YOR132W | yeast gene YPL149W
6.8: yeast gene YGR213C
0.9: yeast gene YBL005W-A | yeast gene YCR088W | yeast gene YEL042W | yeast gene YLR429W | yeast gene YOR259C | yeast gene YOR261C | yeast gene YOR383C
0.4: yeast gene YNR069C
1.4: yeast gene YDR259C | yeast gene YDR432W | yeast gene YIL140W | yeast gene YJR086W | yeast gene YKL193C | yeast gene YLR250W | yeast gene YOR181W
4.6: yeast gene YLR178C
3.4: yeast gene YDR085C
2.0: yeast gene YBR214W
3.0: yeast gene YLR362W
3.5: yeast gene YGR189C
2.3: yeast gene YNL333W
1.7: yeast gene YDL238C | yeast gene YMR094W
4.5: yeast gene YNL093W
1.0: yeast gene YBL041W | yeast gene YCL027W | yeast gene YDR388W | yeast gene YKL041W | yeast gene YOR198C
1.5: yeast gene YDR115W | yeast gene YFL028C | yeast gene YIL123W | yeast gene YNL006W | yeast gene YOL013C | yeast gene YOL164W
3.3: yeast gene YLR136C
8.2: yeast gene YLR327C
